# Where two headings read alike, the source gives them in different places. Marks after values point to notes of the source that are not given here.
# Experiments:
# [1] = system: DNBS-Induced Inflammatory Bowel Disease Models in Rats; test: Biological Example 3: DNBS-induced inflammatory bowel disease models in rats; type: in vivo, Wistar rats; details: 30 mg/Kg i.g. qd × 7; for Body weight: Mean ± SD
# Procedure: (§1) 102 male Wistar rats were fasted for 40 hours. A 5% glucose injection (10 mL/Kg) was administered subcutaneously during fasting. 72 rats with normal conditions and moderate body weight were selected from the fasting rats. The animals were randomly divided into 9 groups according to the body weight (see Table 9. Grouped Table).
# (§2) The animals were anesthetized with ether after 40 hours fasting. A specially made gavage device was slowly inserted into the enteric cavity at 8 cm from the anus. The model control group and each test group were administered with 0.5 mL of 50 mg/mL DNBS in 30% ethanol solution. The normal control group was administered with 0.5 mL of 30% ethanol solution. The animals were inverted in anesthesia for 15 minutes. The day when the model was prepared was day 0 of the experiment. After 4 hours of DNBS induction, the corresponding drug or the corresponding volume of 1% CMC-Na was administered once per day. On day 7 of the experiment, the animals were euthanized to score the colon adhesion degree, measure the length of colon and ulcer area, weigh colon and calculate the colon weight to length ratio.
# (§3) One-way ANOVA analysis of the length of colon and colon weight per length of rats was performed by SPSS22. Statistical analyses between groups were performed. The adhesion degree was scored. Mann-Whitney U non-parametric test was performed on ulcer area. Statistical analyses between groups were performed.
# (§4) Calculation Formula of Inhibitory rate of weight increase per length: (Colon weight to length ratio in model group−Colon weight to length ratio in administration group)/(Colon weight to length ratio in model group−Colon weight to length ratio in blank group)
# [2] = system: DNBS-Induced Inflammatory Bowel Disease Models in Rats; test: Biological Example 4: DNBS-induced inflammatory bowel disease models in rats; type: in vivo, Wistar rats; details: 30 mg/Kg i.g. qd × 7; for Body weight: Mean ± SD; for inhibition in vivo at 30 mg/kg: Rattus norvegicus, po, 168 h
# Procedure: as §1, with “72” for “40”, “injection” for “injection (10 mL/Kg)”, “subcutaneously twice” for “subcutaneously”, “88” for “72”, “11” for “9”, “11.” for “9.”
# as §2, with “72” for “40”
# as §3, §4
structure (smiles),measurement,setting,value
"COCCN1C(=O)CCC(N2C(=O)c3cccc(N)c3C2=O)C1=O (stereo not shown) [Example 27, 4-amino-2-(1-(2-methoxyethyl)-2,6-dioxopiperidin-3-yl)isoindolin-1,3-dione]",Adhesion Degree of Colon,[1]; day 7,0.9 ± 0.4 point
same,Colon weight to length ratio,[1]; day 7,109 ± 12 mg/cm
same,Inhibitory rate of colon adhesion,[1]; day 7,47.1# %
same,Inhibitory rate of ulcer area of colon,[1]; day 7,99.7## %
same,Inhibitory rate of weight increase per length,[1]; day 7,58.2## %
same,Ulcer area of colon,[1]; day 7,0.01 ± 0.02## cm^2
same,Body weight,[1]; Day 0,135.4 ± 4.9 g
same,Body weight,[1]; Day 1,135.2 ± 4.2 g
same,Body weight,[1]; Day 2,136.7 ± 5.0 g
same,Body weight,[1]; Day 3,141.7 ± 7.5 g
same,Body weight,[1]; Day 4,150.1 ± 9.2 g
same,Body weight,[1]; Day 5,159.1 ± 10.3 g
same,Body weight,[1]; Day 6,165.2 ± 10.0 g
same,Body weight,[1]; Day 7,175.8 ± 8.2 g
same,Colon weight to length ratio,[2]; day 7,106 ± 14 mg/cm
same,Ulcer area of colon,[2]; day 7,0.4 ± 0.6 cm^2
same,Body weight,[2]; Day 1,125.5 ± 8.4 g
same,Body weight,[2]; Day 2,124.4 ± 8.1 g
same,Body weight,[2]; Day 3,125.8 ± 8.2 g
same,Body weight,[2]; Day 4,133.1 ± 9.2 g
same,Body weight,[2]; Day 5,141.6 ± 12.0 g
same,Body weight,[2]; Day 6,146.7 ± 11.8 g
same,Body weight,[2]; Day 7,156.3 ± 11.0 g
same,inhibition in vivo at 30 mg/kg,"[2]; day 7, read-out: Inhibitory rate of ulcer area of colon",83.3%
same,inhibition in vivo at 30 mg/kg,"[2]; day 7, read-out: Inhibitory rate of weight increase per length",65.9%

# Reference: patent US20220372013A2, “PIPERIDINE-2,6-DIONE DERIVATIVES AND CROHN'S DISEASE TREATING” (Tianjin Hemay Pharmaceutical Sci-Tech Co., Ltd, priority 2016, published 2022)
